A short description of series [1]: Stability of ORZY-04 on drying. The following applies: 168 h of drying at 45° C. in vacuum. It is filed as physicochemical. Here is the method: A citric acid solution was prepared by charging citric acid (15.01 g, […]) and MeOH (100 mL) in a separate container and stirring for 5 min. at 20° C. The citric acid solution was then charged to the container containing the reaction solution, and the mixture was cooled to 0° C. and stirred for at least 12 h at 0° C. ORZY-04 was then isolated by filtration of the obtained suspension, and washed with MeOH (40 mL). Finally, the solids were dried at 45° C. in vacuum.

The format of series [2] is in vivo, human. The source says: The stability permits that the permeability of arimoclomol is high based on urinary recovery in human mass balance trial.
On the set-up of series [3]: species or system human. The conditions noted are these: in vivo. Here is the method:
The PK parameters of arimoclomol after single dose and multiple dose administrations of arimoclomol were studied. After single- and multiple-dose oral administration of arimoclomol, the overall median tmax was 0.25 to 3.00 hours.

Details of series [4]: species or system dogs. The conditions noted are these: dog, in vivo.
Series [5] is described as follows: Particle size distribution of ORZY-05 by Malvern Mastersizer 3000. It is filed as physicochemical. The conditions noted are these: ORZY-05 particles, Malvern Mastersizer 3000, volume distribution. Here is the method: Further batches of ORZY-05 were prepared essentially as in Example 7 and the ORZY-05 particles were examined using Malvern Mastersizer 3000 as described in Example 11.
Malvern Mastersizer 3000: Particle size distribution of Arimoclomol citrate (ORZY-05) was determined by light scattering using a Malvern Mastersizer 3000 particle size analyzer (Malvern Instruments Ltd, Grovewood Road, Malvern, Worcestershire WR14 1XZ, United Kingdom) with a Hydro MV wet-dispersion unit attached. 2-Propanol with 1.8 g/L SPAN-85 additive was used as a dispersion medium (“dispersant”) and added to the dispersion unit. Prior to sample addition, the background counts of the system were determined by circulating the dispersant through the measurement cell under measurement conditions (2500 rpm stirrer speed). Samples for analysis were prepared by adding a suitable amount of Arimoclomol citrate to a 10 mL vial and pre-dispersing it with dispersant under light agitation for a few seconds. The pre-dispersed sample was then pipetted into the Hydro MV dispersion unit filled with dispersant to meet a laser obscuration range of 10-15%. A single-use PE pipette was used for this and representative sampling from the 10 mL vial was ensured by continuous agitation. […] Volume distributions were obtained and the D10, D50 and D90 were calculated from these distributions and reported. For each sample, a single sample preparation was analyzed using red light measurement only. Upon measurement completion, the sample cell was emptied and cleaned.

A short description of series [6]: Particle size distribution of ORZY-05 by static automated imaging (Morphologi 4). It is filed as physicochemical. The following applies: ORZY-05 particles. As for the experimental part: The materials and methods were essentially as in Example 7. In the present example, the cooling time of the cooling step of from 30° C. to 0° C. subsequent to addition of acetone was varied and its influence on the particle size of ORZY-05 was determined. The cooling time is a measure of how long it takes to reach 0° C. from 30° C. The particle size distribution (PSD) data shown in Table 3 were acquired using static automated imaging (Morphology 4).
Morphologi 4: The Particle size distribution of Arimoclomol citrate (ORZY-05) was also measured using a Malvern Morphologi 4 equipment.
Wet measurement was used for the needle shaped particles. […] Measurements were made using a thin path wet cell (75*75 mm). Samples were prepared by adding 20 mL of dispersant to 10 mg of API, followed by 30 s of stirring and 2 min of sonication in order to break the agglomerates. A microscope magnifier of X10 or X20 was used, and segmentation sharp edge and/or thresholding was used to improve the focus microscope focus.

`[O-][n+]1cccc(/C(Cl)=N/OC[C@H](O)CN2CCCCC2)c1` [ORZY-04]: the stability on drying entry in series [1] was “stable”.
As for `[O-][n+]1cccc(C(Cl)=NOC[C@H](O)CN2CCCCC2)c1` [arimoclomol, N-{[(2R)-2-hydroxy-3-piperidin-1-ylpropyl]oxy}pyridine-3-carboximidoyl chloride 1-oxide], in series [2] (in vivo), the “drug-related material recovered in faeces” value worked out at 12% and the “drug-related material recovered in the urine” value amounted to 77.5%. The permeability entry in series [2] (not told) was “high”. The “PK parameters (Cmax and AUC0-8) versus dose” value in series [3] is “increase in proportion to the dose”. For the same compound, in series [3] (po), the absorption result was “rapid and extensive”. Moreover, the absolute bioavailability in series [4] is recorded as 75%.
For `O=C(O)CC(O)(CC(=O)O)C(=O)O.[O-][n+]1cccc(/C(Cl)=N/OC[C@H](O)CN2CCCCC2)c1` [compound 1001, arimoclomol citrate], in series [5], the D10 is listed as 7.00 μm, the D50 is 21.00 μm and the D90 was determined as 63.00 μm. Besides, in series [6], the “Number CE Diameter D10” value was determined as 2.41 μm, the “Number CE Diameter D50” value is on record as 5.28 μm, the “Number CE Diameter D90” value is given as 17.81 μm and the “Number CE Diameter Mean” value is recorded as 8.16 μm. In series [6], the “Number Length D10” value is given as 2.90 μm, the “Number Length D50” value came to 7.03 μm, the “Number Length D90” value stood at 26.69 μm and the “Volume CE Diameter D10” value came out at 13.10 μm. For the same compound, in series [6], the “Volume CE Diameter D50” value is 25.95 μm, the “Volume CE Diameter D90” value worked out at 47.14 μm, the “Volume CE diameter D[3,2]” value is reported as 21.77 μm and the “Volume CE diameter D[4,3]” value is on record as 29.46 μm.
In series [5], `O=C(O)CC(O)(CC(=O)O)C(=O)O.[O-][n+]1cccc(/C(Cl)=N/OC[C@H](O)CN2CCCCC2)c1` [compound 1002, arimoclomol citrate] yielded a D10 of 14.00 μm, a D50 of 53.00 μm and a D90 of 118.00 μm. Also, in series [6], the “Number CE Diameter D10” value is on record as 2.45 μm, the “Number CE Diameter D50” value stood at 5.61 μm, the “Number CE Diameter D90” value is 15.01 μm and the “Number CE Diameter Mean” value was found to be 7.71 μm. In series [6], the “Number Length D10” value turned out to be 3.46 μm, the “Number Length D50” value is on record as 7.37 μm, the “Number Length D90” value stood at 22.17 μm and the “Volume CE Diameter D10” value was determined as 12.39 μm. In addition, in series [6], the “Volume CE Diameter D50” value amounted to 32.12 μm, the “Volume CE Diameter D90” value is 73.60 μm, the “Volume CE diameter D[3,2]” value came to 24.24 μm and the “Volume CE diameter D[4,3]” value amounted to 39.38 μm.
As for `O=C(O)CC(O)(CC(=O)O)C(=O)O.[O-][n+]1cccc(/C(Cl)=N/OC[C@H](O)CN2CCCCC2)c1` [compound 1003, arimoclomol citrate], in series [5], the D10 was 6.00 μm, the D50 is recorded as 17.00 μm and the D90 worked out at 47.00 μm. In series [6], the “Number CE Diameter D10” value came to 0.89 μm, the “Number CE Diameter D50” value stood at 3.34 μm, the “Number CE Diameter D90” value is given as 14.14 μm and the “Number CE Diameter Mean” value is 5.79 μm. In series [6], the “Number Length D10” value was found to be 4.20 μm, the “Number Length D50” value is reported as 9.50 μm, the “Number Length D90” value was 25.49 μm and the “Volume CE Diameter D10” value is on record as 10.66 μm. For the same compound, in series [6], the “Volume CE Diameter D50” value came to 20.58 μm, the “Volume CE Diameter D90” value is 34.54 μm, the “Volume CE diameter D[3,2]” value came to 17.52 μm and the “Volume CE diameter D[4,3]” value stood at 22.10 μm.
In series [5], `O=C(O)CC(O)(CC(=O)O)C(=O)O.[O-][n+]1cccc(/C(Cl)=N/OC[C@H](O)CN2CCCCC2)c1` [compound 1004, arimoclomol citrate] yielded a D10 of 8.00 μm, a D50 of 22.00 μm and a D90 of 68.00 μm. In series [6], the “Number CE Diameter D10” value was 1.05 μm, the “Number CE Diameter D50” value came out at 2.86 μm, the “Number CE Diameter D90” value is listed as 13.33 μm and the “Number CE Diameter Mean” value was found to be 5.31 μm. In series [6], the “Number Length D10” value is 2.82 μm, the “Number Length D50” value worked out at 6.18 μm, the “Number Length D90” value was determined as 24.80 μm and the “Volume CE Diameter D10” value is on record as 12.62 μm. In series [6], the “Volume CE Diameter D50” value is given as 25.00 μm, the “Volume CE Diameter D90” value stood at 43.46 μm, the “Volume CE diameter D[3,2]” value was 20.53 μm and the “Volume CE diameter D[4,3]” value came out at 27.06 μm.

Values taken from US20230416224A1, “PROCESSES FOR PREPARING ARIMOCLOMOL CITRATE AND INTERMEDIATES THEREOF” (ZEVRA DENMARK A/S, priority 2020, published 2023).
